Experimental data from US11541132B2, “Radiolabeled compounds” (Hoffmann-La Roche Inc., priority 2017, dated 2023).

Key:
[1] = target: T1, native aSyn aggregates in A30P transgenic mouse brain sections (Homo sapiens, UniProt P37840, A30P); assay: aSyn in vitro displacement assay ([3H]Example-3 autoradiography); format: binding, mutant human aSyn gene); details: 3 μM compound; 3 nM [3H]Example-3; A30P transgenic mouse brain sections; read-out: PCT_INHIB A30P @ 3 μM
T1 construct: from tissue; host or cells: brain sections (midbrain and pons as ROI) of A30P transgenic mice, line B6.D2-Tg(Thy1-SNCA*30P)31Pjk

[2] = target: T2, native Aβ aggregates in human AD brain tissue sections (Homo sapiens, UniProt P05067); assay: Aβ in vitro displacement assay (selectivity counterscreen, [3H]Example 3 autoradiography); format: binding; details: 3 μM compound; 3 nM [3H]Example 3; human AD brain sections; read-out: sel. counterscreen PCT_INHIB AD @ 3 μM
T2 construct: native Aβ aggregates in human AD brain tissue samples; from tissue; host or cells: human AD brain tissue sections
T2 sequence (P05067 672-713 limits assumed): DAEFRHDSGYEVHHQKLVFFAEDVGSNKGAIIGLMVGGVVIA

[3] = target: T3, aSyn aggregates (LBs) in human PD brain tissue (Homo sapiens, UniProt P37840); assay: aSyn in vitro binding assay on human PD tissue sections; details: higher magnification
T3 construct: tissue Banner Sun Health Research Institute; host or cells: human PD brain (cortical) tissue sections
Method: Human PD brain tissue blocks were obtained from the Banner Sun Health Research Institute (Sun City, Ariz., USA). Pathological diagnosis of PD was made according to standard criteria based on neuropathological data.
(§1) Ten μm thick A30P transgenic mouse brain sections and human PD brain sections are generated with a cryostat (Leica CM3050) at −17° C. chamber temperature and −15° C. object temperature. Sections are transferred to Histobond+ microscope slides (Marienfeld Laboratory Glasware). After drying for 3 hours at room temperature the sections are stored at −20° C. The sections are incubated with the radioligand (0.3-30 nM) and the respective cold compound (at various concentrations) in 50 mM Tris buffer, pH 7.4 at room temperature for 30 min. After washing 3×10 min at 4° C. in 50 mM Tris buffer, pH 7.4 and 3 quick dips in H2O dist. at 4° C. the sections are dried at 4° C. for 3 h. The sections are placed in a FujiFilm Cassette, exposed to an Imaging Plate (BAS-IP TR 2025) for five days and afterwards scanned with a FujiFilm IP reader (BAS-5000) with a resolution of […] per pixel.
(§2) Antibody staining of sections is performed after exposure and scanning of the tissue sections undergoing classical autoradiographical analysis. Brain sections were hydrated in PBS and blocked in 1% bovine serum albumin, 1% ovalbumin and 1% normal goat serum in PSB for 20 min. […]

[4] = target: T4, aSyn aggregates in A30P transgenic mouse brain tissue (Homo sapiens, UniProt P37840, A30P); assay: aSyn in vitro binding assay (autoradiography of tritiated compounds); design: species or system mutant human aSyn gene)
T4 construct: from tissue; host or cells: brain sections (midbrain and pons as ROI) of A30P transgenic mice, line B6.D2-Tg(Thy1-SNCA*30P)31Pjk
Method: as §1
as §2, with “min. This is followed by overnight incubation at 4° C. with a mixture of anti-aSyn pS129 monoclonal antibody (generated in-house; 1 μg/mL) in blocking buffer.” for “min.”

[5] = target: native Aβ aggregates in human AD brain sections (Homo sapiens, UniProt P05067); assay: Aβ in vitro binding assay (autoradiography); details: human AD cortical tissue section, 3 nM (FIG. 8)
native Aβ aggregates in human AD brain sections, sequence (P05067 672-713 limits assumed): as above
Method: Ten μm thick A30P transgenic mouse brain sections and human PD brain sections are generated with a cryostat (Leica CM3050) at −17° C. chamber temperature and −15° C. object temperature. Sections are transferred to Histobond+ microscope slides (Marienfeld Laboratory Glasware). After drying for 3 hours at room temperature the sections are stored at −20° C. The sections are incubated with the radioligand (0.3-30 nM) and the respective cold compound (at various concentrations) in 50 mM Tris buffer, pH 7.4 at room temperature for 30 min. After washing 3×10 min at 4° C. in 50 mM Tris buffer, pH 7.4 and 3 quick dips in H2O dist. at 4° C. the sections are dried at 4° C. for 3 h. The sections are placed in a FujiFilm Cassette, exposed to an Imaging Plate (BAS-IP TR 2025) for five days and afterwards scanned with a FujiFilm IP reader (BAS-5000) with a resolution of 25 μM per pixel.
This direct in vitro binding assay assesses the affinity of radiotracers for native Aβ aggregates in tissue sections by autoradiography.

inhibition at 3 µM [1] [%] | inhibition at 3 µM [2] [%] | SMILES | other results
102 | 97 | C#Cc1ccc(N2CCN(c3ccc(NC(=O)c4ccc(OC)cc4)cc3)CC2)nc1 [Example 176, N-[4-[4-(5-Ethynyl-2-pyridyl)piperazin-1-yl]phenyl]-4-methoxy-benzamide] | –
96 | 97 | C#CCOc1ccc(C(=O)Nc2ccc(N3CCN(c4ccccn4)CC3)cc2)cc1 [Example 177, 4-Prop-2-ynoxy-N-[4-[4-(2-pyridyl)piperazin-1-yl]phenyl]benzamide] | –
97 | 93 | C#CCOCCOc1ccc(C(=O)Nc2ccc(N3CCN(c4ccccn4)CC3)cc2)cc1 [Example 178, 4-(2-Prop-2-ynoxyethoxy)-N-[4-[4-(2-pyridyl)piperazin-1-yl]phenyl]benzamide] | –
– | – | [3H]C([3H])([3H])Oc1ccc(C(=O)Nc2ccc(N3CCN(c4ccccn4)CC3)cc2)cc1 [[^3H]Example-3, 4-[^3H3] Methoxy-N-[4-(4-pyridin-2-ylpiperazin-1-yl)phenyl]benzamide] | co-localization of autoradiogram hot spots with LBs stained by aSyn mAb pS129 [3]: good co-localization; co-localization of radioligand binding and aSyn antibody pS129 staining ([4]; A30P transgenic mouse brain sections): excellent co-localization; binding to aSyn aggregates in A30P transgenic mouse brain tissue ([4]; radioligand 3 nM (FIG. 1), midbrain and pons): strong binding
– | – | [3H]C([3H])(F)Oc1ccc(C(=O)Nc2ccc(N3CCN(c4cccnc4)CC3)cc2)cc1 [[^3H]Example-134, [^3H]4-(Fluoromethoxy)-N-(4-(4-(pyridin-3-yl)piperazin-1-yl)phenyl)benzamide] | co-localization of radioligand binding and Aβ mAb staining [5]: excellent co-localization
